The compounds below were run against T1, KRASG12D (Homo sapiens, UniProt P01116, G12D) (assay: Bio-Biochem-PPI-HTRF Ras-SOS1 interaction assay (KRAS G12D)). Conditions: 5 nM.
T1 construct: made in house; host or cells: E. coli BL21 (DE3)
Type: biochemical
Method: (§1) The assay buffer can contain −5 mM HEPES pH 7.4, ˜150 mM NaCl, ˜ 1 mM DTT, 0.05% BSA and 0.0025% (v/v) Igepal. A Ras working solution is prepared in an assay buffer containing typically a suitable amount of the protein construct (e.g., GST-tagged K-Ras mutant) and the FRET donor (e.g., antiGST-Eu(K) from Cisbio, France). A SOS1 working solution is prepared in an assay buffer containing suitable amount of the protein construct (e.g., His-hSOS1) and the FRET acceptor (e.g., anti-6His-XL665 from Cisbio, France). A suitable amount of the protein construct will depend on the range of activity or range of IC50 values being detected or under investigation. For detecting IC50 within a range of 500 nM, the protein constructs of the same range of molarity can be utilized. […] A fixed volume of DMSO with or without test compound is transferred into a 384-well plate. Ras working solution is added to all wells of the test plate. SOS1 working solution is added to all wells except for those that are subsequently filled the inhibitor control solution. Upon incubation for about 10 minutes or longer, the fluorescence is measured with a M1000Pro plate reader (Tecan) using HTRF detection (excitation 337 nm, emission 1:620 nm, emission 2: 665 nm). Compounds are tested in duplicates at different concentrations (for example, 10 μM, 2.5 μM, 0.63 μM, 0.16 μM, 0.04 μM, 0.01 μM test compound). The ratiometric data (i.e., emission 2 divided by emission 1) is used to calculate IC50 values against Ras using GraphPad Prism (GraphPad software). Following this general procedure, samples were tested with or without a subject compound disclosed herein including compounds exemplified in Table 1 to assess their abilities to inhibit a mutant K-Ras relative to another mutant K-Ras or wildtype K-Ras. Signaling output measured in terms of IC50 values can be obtained, a ratio of IC50 against one mutant relative to another mutant can be calculated. For instance, a selective reduction of K-Ras G12D signaling output can be evidenced by a ratio greater than one. In particular, a selective reduction of K-Ras G12D signaling relative to K-Ras WT signaling is evidenced as the ratio of IC50 (against K-Ras WT) to IC50 (against K-Ras G12D) is greater than 1.

T1 sequence (P01116 1-188 isoform P01116-2 G12D): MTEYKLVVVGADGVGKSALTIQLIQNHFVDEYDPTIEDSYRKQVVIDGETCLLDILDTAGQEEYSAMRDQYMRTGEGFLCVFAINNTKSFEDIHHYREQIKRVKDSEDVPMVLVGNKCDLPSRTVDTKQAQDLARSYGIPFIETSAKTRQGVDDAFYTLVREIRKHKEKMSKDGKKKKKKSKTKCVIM

IC50, < 5 µM:
C#Cc1c(F)ccc2cc(O)cc(-c3ccc4c(N5CCCCC6(CN(C(=O)[C@H]7CC7(F)F)C6)C5)nc(OC[C@@]56CCCN5C[C@H](F)C6)nc4c3F)c12 [compound 305, ((R)-2,2-difluorocyclopropyl) (6-(7-(8-ethynyl-7-fluoro-3-hydroxynaphthalen-1-yl)-8-fluoro-2-(((2R,7aS)-2-fluorotetrahydro-1H-pyrrolizin-7a(5H)-yl)methoxy)quinazolin-4-yl)-2,6-diazaspiro[3.6]decan-2-yl)methanone]
CN(C)C/C=C/C(=O)N1CC2(C1)CN(c1nc(OC[C@@]34CCCN3C[C@H](F)C4)nc3c(F)c(-c4ccc(F)c5sc(N)c(C#N)c45)c(Cl)cc13)CCO2 [compound 185, 2-amino-4-(6-chloro-4-(2-((E)-4-(dimethylamino)but-2-enoyl)-5-oxa-2,8-diazaspiro[3.5]nonan-8-yl)-8-fluoro-2-(((2R,7aS)-2-fluorotetrahydro-1H-pyrrolizin-7a(5H)-yl)methoxy)quinazolin-7-yl)-7-fluorobenzo[b]thiophene-3-carbonitrile]
N#Cc1c(N)sc2c(F)ccc(-c3c(Cl)cc4c(N5CCCCC6(CN(C(=O)c7ccnn7CC(F)F)C6)C5)nc(OC[C@@]56CCCN5C[C@H](F)C6)nc4c3F)c12 [compound 208, 2-amino-4-(6-chloro-4-(2-(1-(2,2-difluoroethyl)-1H-pyrazole-5-carbonyl)-2,6-diazaspiro[3.6]decan-6-yl)-8-fluoro-2-(((2R,7aS)-2-fluorotetrahydro-1H-pyrrolizin-7a(5H)-yl)methoxy)quinazolin-7-yl)-7-fluorobenzo[b]thiophene-3-carbonitrile]
N#Cc1c(N)sc2c(F)ccc(-c3c(Cl)cc4c(N5CCCCC6(CN(C(=O)N7CC(C(F)F)C7)C6)C5)nc(OC[C@@]56CCCN5C[C@H](F)C6)nc4c3F)c12 [compound 262, 2-amino-4-(6-chloro-4-(2-(3-(difluoromethyl)azetidine-1-carbonyl)-2,6-diazaspiro[3.6]decan-6-yl)-8-fluoro-2-(((2R,7aS)-2-fluorotetrahydro-1H-pyrrolizin-7a(5H)-yl)methoxy)quinazolin-7-yl)-7-fluorobenzo[b]thiophene-3-carbonitrile]
N#Cc1c(N)sc2c(F)ccc(-c3c(Cl)cc4c(N5CCCCC6(CN(C(=O)CC7CC7(F)F)C6)C5)nc(OC[C@@]56CCCN5C[C@H](F)C6)nc4c3F)c12 (stereo partly drawn) [compound 331, 2-amino-4-(6-chloro-4-(2-(2-(2,2-difluorocyclopropyl)acetyl)-2,6-diazaspiro[3.6]decan-6-yl)-8-fluoro-2-(((2R,7aS)-2-fluorotetrahydro-1H-pyrrolizin-7a(5H)-yl)methoxy)quinazolin-7-yl)-7-fluorobenzo[b]thiophene-3-carbonitrile]
N#Cc1c(N)sc2c(F)ccc(-c3c(Cl)cc4c(N5CCCCC6(CN(C(=O)C7CC(C#N)C7)C6)C5)nc(OC[C@@]56CCCN5C[C@H](F)C6)nc4c3F)c12 (stereo partly drawn) [compound 295, 2-amino-4-(6-chloro-4-(2-(3-cyanocyclobutane-1-carbonyl)-2,6-diazaspiro[3.6]decan-6-yl)-8-fluoro-2-(((2R,7aS)-2-fluorotetrahydro-1H-pyrrolizin-7a(5H)-yl)methoxy)quinazolin-7-yl)-7-fluorobenzo[b]thiophene-3-carbonitrile]
CN1CCC[C@H]1COc1nc(N2CCOC3(CNC3)C2)c2cc(Cl)c(-c3ccc(F)c4sc(N)c(C#N)c34)c(F)c2n1 (single isomer, unassigned; atropisomer 2) [compound 121]
N#Cc1c(N)sc2c(F)ccc(-c3c(Cl)cc4c(N5CCCCC6(CN(C(=O)C7CC7)C6)C5)nc(OC[C@@]56CCCN5C[C@H](F)C6)nc4c3F)c12 [compound 281, 2-amino-4-(6-chloro-4-(2-(cyclopropanecarbonyl)-2,6-diazaspiro[3.6]decan-6-yl)-8-fluoro-2-(((2R,7aS)-2-fluorotetrahydro-1H-pyrrolizin-7a(5H)-yl)methoxy)quinazolin-7-yl)-7-fluorobenzo[b]thiophene-3-carbonitrile]
N#Cc1c(N)sc2c(F)ccc(-c3c(Cl)cc4c(N5CCCCC6(CN(C(=O)C7C8COCC87)C6)C5)nc(OC[C@@]56CCCN5C[C@H](F)C6)nc4c3F)c12 (stereo partly drawn) [compound 299, 4-(4-(2-(3-oxabicyclo[3.1.0]hexane-6-carbonyl)-2,6-diazaspiro [3.6]decan-6-yl)-6-chloro-8-fluoro-2-(((2R,7aS)-2-fluorotetrahydro-1H-pyrrolizin-7a(5H)-yl)methoxy)quinazolin-7-yl)-2-amino-7-fluorobenzo[b]thiophene-3-carbonitrile]
N#Cc1c(N)sc2c(F)ccc(-c3c(Cl)cc4c(N5CCCCC6(CN(C(=O)C(F)Cl)C6)C5)nc(OC[C@@]56CCCN5C[C@H](F)C6)nc4c3F)c12 (stereo partly drawn) [compound 291, 2-amino-4-(6-chloro-4-(2-(2-chloro-2-fluoroacetyl)-2,6-diazaspiro[3.6]decan-6-yl)-8-fluoro-2-(((2R,7aS)-2-fluorotetrahydro-1H-pyrrolizin-7a(5H)-yl)methoxy)quinazolin-7-yl)-7-fluorobenzo[b]thiophene-3-carbonitrile]
N#Cc1c(N)sc2c(F)ccc(-c3c(Cl)cc4c(N5CCCCC6(CN(C(=O)CC7COC7)C6)C5)nc(OC[C@@]56CCCN5C[C@H](F)C6)nc4c3F)c12 [compound 297, 2-amino-4-(6-chloro-8-fluoro-2-(((2R,7aS)-2-fluorotetrahydro-1H-pyrrolizin-7a(5H)-yl)methoxy)-4-(2-(2-(oxetan-3-yl)acetyl)-2,6-diazaspiro[3.6]decan-6-yl)quinazolin-7-yl)-7-fluorobenzo[b]thiophene-3-carbonitrile]
N#Cc1c(N)sc2c(F)ccc(-c3c(Cl)cc4c(N5CCCCC6(CN(C(=O)C7CC78CCOC8)C6)C5)nc(OC[C@@]56CCCN5C[C@H](F)C6)nc4c3F)c12 (stereo partly drawn) [compound 310, 4-(4-(2-(5-oxaspiro[2.4]heptane-1-carbonyl)-2,6-diazaspiro[3.6]decan-6-yl)-6-chloro-8-fluoro-2-(((2R,7aS)-2-fluorotetrahydro-1H-pyrrolizin-7a(5H)-yl)methoxy)quinazolin-7-yl)-2-amino-7-fluorobenzo [b]thiophene-3-carbonitrile]
N#Cc1c(N)sc2c(F)ccc(-c3c(Cl)cc4c(N5CCCCC6(CN(C(=O)NC7(C(F)(F)F)CC7)C6)C5)nc(OC[C@@]56CCCN5C[C@H](F)C6)nc4c3F)c12 [compound 315, 6-(7-(2-amino-3-cyano-7-fluorobenzo[b]thiophen-4-yl)-6-chloro-8-fluoro-2-(((2R,7aS)-2-fluorotetrahydro-1H-pyrrolizin-7a(5H)-yl)methoxy)quinazolin-4-yl)-N-(1-(trifluoromethyl)cyclopropyl)-2,6-diazaspiro[3.6]decane-2-carboxamide]
N#Cc1c(N)sc2c(F)ccc(-c3c(Cl)cc4c(N5CCCCC6(CN(C(=O)N7CC(F)(F)C7)C6)C5)nc(OC[C@@]56CCCN5C[C@H](F)C6)nc4c3F)c12 [compound 307, 2-amino-4-(6-chloro-4-(2-(3,3-difluoroazetidine-1-carbonyl)-2,6-diazaspiro[3.6]decan-6-yl)-8-fluoro-2-(((2R,7aS)-2-fluorotetrahydro-1H-pyrrolizin-7a(5H)-yl)methoxy)quinazolin-7-yl)-7-fluorobenzo[b]thiophene-3-carbonitrile]
N#Cc1c(N)sc2c(F)ccc(-c3c(Cl)cc4c(N5CCCCC6(CN(C(=O)C78CC(C#N)(C7)C8)C6)C5)nc(OC[C@@]56CCCN5C[C@H](F)C6)nc4c3F)c12 [compound 321, 2-amino-4-(6-chloro-4-(2-(3-cyanobicyclo[1.1.1]pentane-1-carbonyl)-2,6-diazaspiro[3.6]decan-6-yl)-8-fluoro-2-(((2R,7aS)-2-fluorotetrahydro-1H-pyrrolizin-7a(5H)-yl)methoxy)quinazolin-7-yl)-7-fluorobenzo[b]thiophene-3-carbonitrile]
N#Cc1c(N)sc2c(F)ccc(-c3c(Cl)cc4c(N5CCCCC6(CN(C(=O)N7CC[C@H]7C#N)C6)C5)nc(OC[C@@]56CCCN5C[C@H](F)C6)nc4c3F)c12 [compound 264, (2S)-1-(6-(7-(2-amino-3-cyano-7-fluorobenzo[b]thiophen-4-yl)-6-chloro-8-fluoro-2-(((2R,7aS)-2-fluorotetrahydro-1H-pyrrolizin-7a(5H)-yl)methoxy)quinazolin-4-yl)-2,6-diazaspiro[3.6]decane-2-carbonyl)azetidine-2-carbonitrile]

These compounds were tested against T2, KRASwt (Homo sapiens, UniProt P01116) (assay: Bio-Biochem-PPI-HTRF Ras-SOS1 interaction assay (KRAS wt)). Conditions: 5 nM.
T2 construct: made in house; host or cells: E. coli BL21 (DE3)
T2 sequence (P01116 1-188 isoform P01116-2): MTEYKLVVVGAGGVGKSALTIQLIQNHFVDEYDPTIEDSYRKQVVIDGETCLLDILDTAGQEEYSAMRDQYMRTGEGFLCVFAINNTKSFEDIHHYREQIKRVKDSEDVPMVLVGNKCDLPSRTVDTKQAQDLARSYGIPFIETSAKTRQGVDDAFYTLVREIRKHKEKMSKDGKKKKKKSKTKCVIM
Type: biochemical
Method: as §1

IC50, < 5 µM:
C#Cc1c(F)ccc2cc(O)cc(-c3ccc4c(N5CCCCC6(CN(C(=O)[C@H]7CC7(F)F)C6)C5)nc(OC[C@@]56CCCN5C[C@H](F)C6)nc4c3F)c12 [compound 305, ((R)-2,2-difluorocyclopropyl) (6-(7-(8-ethynyl-7-fluoro-3-hydroxynaphthalen-1-yl)-8-fluoro-2-(((2R,7aS)-2-fluorotetrahydro-1H-pyrrolizin-7a(5H)-yl)methoxy)quinazolin-4-yl)-2,6-diazaspiro[3.6]decan-2-yl)methanone]
CN(C)C/C=C/C(=O)N1CC2(C1)CN(c1nc(OC[C@@]34CCCN3C[C@H](F)C4)nc3c(F)c(-c4ccc(F)c5sc(N)c(C#N)c45)c(Cl)cc13)CCO2 [compound 185, 2-amino-4-(6-chloro-4-(2-((E)-4-(dimethylamino)but-2-enoyl)-5-oxa-2,8-diazaspiro[3.5]nonan-8-yl)-8-fluoro-2-(((2R,7aS)-2-fluorotetrahydro-1H-pyrrolizin-7a(5H)-yl)methoxy)quinazolin-7-yl)-7-fluorobenzo[b]thiophene-3-carbonitrile]
N#Cc1c(N)sc2c(F)ccc(-c3c(Cl)cc4c(N5CCCCC6(CN(C(=O)c7ccnn7CC(F)F)C6)C5)nc(OC[C@@]56CCCN5C[C@H](F)C6)nc4c3F)c12 [compound 208, 2-amino-4-(6-chloro-4-(2-(1-(2,2-difluoroethyl)-1H-pyrazole-5-carbonyl)-2,6-diazaspiro[3.6]decan-6-yl)-8-fluoro-2-(((2R,7aS)-2-fluorotetrahydro-1H-pyrrolizin-7a(5H)-yl)methoxy)quinazolin-7-yl)-7-fluorobenzo[b]thiophene-3-carbonitrile]
